Source: patent US9694016B2 (Novartis AG, priority 2013, dated 2017)
Where two headings read alike, the source gives them in different places.

Molecular target: b-Raf (V600E) (Homo sapiens (Human), UniProt P15056, V600E)
Details: read-out: b-Raf IC-50
[1] = AlphaScreen, 60 min pre-incubation, reaction 3 hours at room temperature
[2] = AlphaScreen, 60 min pre-incubation, 3 hours reaction
[3] = Table 2, AlphaScreen, 3 hours reaction

Sequence of b-Raf (V600E) (P15056 whole entry V600E): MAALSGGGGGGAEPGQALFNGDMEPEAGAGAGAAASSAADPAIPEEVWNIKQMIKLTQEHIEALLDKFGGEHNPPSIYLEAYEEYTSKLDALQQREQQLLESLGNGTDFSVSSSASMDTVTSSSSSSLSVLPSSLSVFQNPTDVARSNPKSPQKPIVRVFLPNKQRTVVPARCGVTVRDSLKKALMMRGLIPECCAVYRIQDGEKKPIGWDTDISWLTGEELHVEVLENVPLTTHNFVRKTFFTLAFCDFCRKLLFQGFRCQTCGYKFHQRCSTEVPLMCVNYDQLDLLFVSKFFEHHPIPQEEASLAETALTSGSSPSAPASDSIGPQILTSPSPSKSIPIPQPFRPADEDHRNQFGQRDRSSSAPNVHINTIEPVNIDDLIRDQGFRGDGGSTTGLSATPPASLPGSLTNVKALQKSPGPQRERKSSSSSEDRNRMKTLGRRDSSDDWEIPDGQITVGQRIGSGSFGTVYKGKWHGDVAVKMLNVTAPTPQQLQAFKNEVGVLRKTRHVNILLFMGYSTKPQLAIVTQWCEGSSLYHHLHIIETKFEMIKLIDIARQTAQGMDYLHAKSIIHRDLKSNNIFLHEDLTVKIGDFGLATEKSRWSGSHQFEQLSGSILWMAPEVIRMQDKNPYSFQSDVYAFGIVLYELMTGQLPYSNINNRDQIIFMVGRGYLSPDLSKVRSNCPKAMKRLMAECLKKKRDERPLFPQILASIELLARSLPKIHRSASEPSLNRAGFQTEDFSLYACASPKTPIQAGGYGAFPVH

Row | Structure (SMILES) | IC50 [1] | IC50 [2] | also measured
1 | COc1cc(-c2cc(NC(=O)c3cccc(C(F)(F)F)c3)ccc2C)nc(N2CCOCC2)c1 [Example 196, N-(3-(4-methoxy-6-morpholinopyridin-2-yl)-4-methylphenyl)-3-(trifluoromethyl)benzamide] |  |  | IC50: 1.5 nM
2 | Cc1ncc(NC(=O)c2cccc(C(F)(F)F)c2)cc1-c1cnc(OCC2COCCO2)c(N2CCOCC2)c1 (stereo not shown) [Example 992] | 1.63 nM |  | 
3 | Cc1ncc(NC(=O)c2cnnc(C(F)(F)F)c2)cc1-c1cc(NCCO)nc(N2CCOCC2)c1 [Example 1051, N-(2′-((2-hydroxyethyl)amino)-2-methyl-6′-morpholino-[3,4′-bipyridin]-5-yl)-6-(trifluoromethyl)pyridazine-4-carboxamide] | 8.19 nM |  | 
4 | COc1nnc(-c2cc(NC(=O)c3ccnc(C(F)(F)F)c3)cnc2C)cc1N1CCOCC1 [Example 605, N-(5-(6-methoxy-5-morpholinopyridazin-3-yl)-6-methylpyridin-3-yl)-2-(trifluoromethyl)isonicotinamide] |  | 2.7 nM | 
5 | Cn1cc(-c2cc(NC(=O)c3ccnc(C(C)(F)F)c3)ccc2Cl)cc(N2CCOCC2)c1=O [Example 414, N-(4-chloro-3-(1-methyl-5-morpholino-6-oxo-1,6-dihydropyridin-3-yl)phenyl)-2-(1,1-difluoroethyl)isonicotinamide] |  |  | IC50 [3]: 1.4 nM
6 | Cc1ncc(NC(=O)c2ccnc(C(F)F)c2)cc1-c1cc(N2CCOCC2)c(OC(C)C)nn1 [Example 913, 2-(difluoromethyl)-N-(5-(6-isopropoxy-5-morpholinopyridazin-3-yl)-6-methylpyridin-3-yl)isonicotinamide] | 2.16 nM |  | 
7 | Cc1ncc(NC(=O)c2ccnc(C(C)(F)F)c2)cc1-c1cc(N2CCOCC2)c(=O)n(C)c1 [Example 391, 2-(1,1-difluoroethyl)-N-(1′,2-dimethyl-5′-morpholino-6′-oxo-1′,6′-dihydro-[3,3′-bipyridin]-5-yl)isonicotinamide] |  |  | IC50 [3]: 12.3 nM
8 | COc1ccc(C(=O)Nc2ccc(C)c(-c3cc(N4CCOCC4)c(=O)n(C)c3)c2)cc1C(F)(F)F [Example 339, 4-methoxy-N-(4-methyl-3-(1-methyl-5-morpholino-6-oxo-1,6-dihydropyridin-3-yl)phenyl)-3-(trifluoromethyl)benzamide] |  |  | IC50 [3]: 1.8 nM
9 | COCCOc1nnc(-c2cc(NC(=O)c3cc(C(F)(F)F)ccn3)ccc2C)cc1N1CCOCC1 [Example 599, N-(3-(6-(2-methoxyethoxy)-5-morpholinopyridazin-3-yl)-4-methylphenyl)-4-(trifluoromethyl)picolinamide] |  | 0.5 nM | 
10 | Cc1ncc(NC(=O)c2cnnc(C(C)(C)C#N)c2)cc1-c1cnc(OCC(F)F)c(N2CCOCC2)c1 [Example 962, 6-(2-cyanopropan-2-yl)-N-(6′-(2,2-difluoroethoxy)-2-methyl-5′-morpholino-[3,3′-bipyridin]-5-yl)pyridazine-4-carboxamide] | 15.4 nM |  | 
11 | Cc1ncc(NC(=O)c2ccnc(C3CC3)c2)cc1-c1cc(N2CCOCC2)nc(N2CC(C)(O)C2)c1 [Example 1102, 2-cyclopropyl-N-(2′-(3-hydroxy-3-methylazetidin-1-yl)-2-methyl-6′-morpholino-[3,4′-bipyridin]-5-yl)isonicotinamide] | 4.45 nM |  | 
12 | COc1ncc(-c2cc(NC(=O)c3cccc(C(F)(F)F)c3)nnc2C)cc1N1CCOCC1 [Example 934, N-(5-(6-methoxy-5-morpholinopyridin-3-yl)-6-methylpyridazin-3-yl)-3-(trifluoromethyl)benzamide] | 4.2 nM |  | 
13 | Cc1ncc(NC(=O)c2ccnc(C(C)(C)C#N)c2)cc1-c1cnc(N(C)C)c(N2CCOCC2)c1 [Example 265, 2-(2-cyanopropan-2-yl)-N-(6′-(dimethylamino)-2-methyl-5′-morpholino-[3,3′-bipyridin]-5-yl)isonicotinamide] |  |  | IC50 [3]: 4.5 nM
14 | CCOc1ncc(-c2cc(NC(=O)c3cc(CN(C)C)cc(C(F)(F)F)c3)cnc2C)cc1N1CCOCC1 [Example 258, 3-((dimethylamino)methyl)-N-(6′-ethoxy-2-methyl-5′-morpholino-[3,3′-bipyridin]-5-yl)-5-(trifluoromethyl)benzamide] |  |  | IC50 [3]: 8.3 nM
15 | Cc1ccc(NC(=O)c2cn(C(C)C)nc2C)cc1-c1cc(N2CCOCC2)c(=O)n(C)c1 [Example 367, 1-isopropyl-3-methyl-N-(4-methyl-3-(1-methyl-5-morpholino-6-oxo-1,6-dihydropyridin-3-yl)phenyl)-1H-pyrazole-4-carboxamide] |  |  | IC50 [3]: 12.6 nM
16 | Cc1ncc(NC(=O)c2ccnc(C(C)(C)C#N)c2)cc1-c1cc(N2CCOCC2)n2nccc2n1 [Example 791, 2-(2-cyanopropan-2-yl)-N-(6-methyl-5-(7-morpholinopyrazolo[1,5-a]pyrimidin-5-yl)pyridin-3-yl)isonicotinamide] |  | 11.4 nM | 
17 | Cn1cc(-c2cc(C(=O)Nc3cccc(C(F)(F)F)c3)cnc2Cl)cc(N2CCOCC2)c1=O [Example 423, 2-chloro-1′-methyl-5′-morpholino-6′-oxo-N-(3-(trifluoromethyl)phenyl)-1′,6′-dihydro-[3,3′-bipyridine]-5-carboxamide] |  |  | IC50 [3]: 6 nM

Row | Structure (SMILES) | IC50 [1] | IC50 [2] | also measured
18 | CCNc1nc(-c2cc(NC(=O)c3cccc(C(F)(F)F)c3)cnc2C)cc(N2CCOCC2)n1 [Example 716, N-(5-(2-(ethylamino)-6-morpholinopyrimidin-4-yl)-6-methylpyridin-3-yl)-3-(trifluoromethyl)benzamide] |  | 1.3 nM | 
19 | Cc1ccc(NC(=O)c2ccnc(C(F)F)c2)cc1-c1cc(N2CCOCC2)nc(NCCO)c1F [Example 1016, 2-(difluoromethyl)-N-(3-(3-fluoro-2-((2-hydroxyethyl)amino)-6-morpholinopyridin-4-yl)-4-methylphenyl)isonicotinamide] | 2.27 nM |  | 
20 | Cc1ccc(NC(=O)c2ccnc(C(C)(F)F)c2)cc1-c1cc(N2CCOCC2)c(S(C)(=O)=O)nn1 [Example 929, 2-(1,1-difluoroethyl)-N-(4-methyl-3-(6-(methylsulfonyl)-5-morpholinopyridazin-3-yl)phenyl)isonicotinamide] | 1.05 nM |  | 
21 | Cc1ncc(NC(=O)c2ccnc(C(C)(C)C#N)c2)cc1-c1cc(N2CCOCC2)c(S(C)(=O)=O)nn1 [Example 924, 2-(2-cyanopropan-2-yl)-N-(6-methyl-5-(6-(methylsulfonyl)-5-morpholinopyridazin-3-yl)pyridin-3-yl)isonicotinamide] | 57.7 nM |  | 
22 | Cc1ncc(NC(=O)c2cncc(C(F)(F)F)c2)cc1-c1cnc(OC(C)C)c(N2CCOCC2)c1 [Example 960, N-(6′-isopropoxy-2-methyl-5′-morpholino-[3,3′-bipyridin]-5-yl)-5-(trifluoromethyl)nicotinamide] | 2.66 nM |  | 
23 | Cc1ccc(NC(=O)c2cnnc(C(F)(F)F)c2)cc1-c1cc(N2CCOCC2)c2nccn2c1 [Example 852] | 0.7 nM |  | 
24 | Cc1ccc(NC(=O)c2ccnc(C(C)(C)C#N)c2)cc1-c1cc(N2CCOCC2)nc(N(C)C)n1 [Example 755, 2-(2-cyanopropan-2-yl)-N-(3-(2-(dimethylamino)-6-morpholinopyrimidin-4-yl)-4-methylphenyl)isonicotinamide] |  | 17.8 nM | 
25 | Cc1ccc(NC(=O)c2ccnc(C(C)(C)C#N)c2)cc1-c1cc(N2CCOCC2)nc(N2C(=O)OC[C@@H]2C)n1 [Example 782, (S)-2-(2-cyanopropan-2-yl)-N-(4-methyl-3-(2-(4-methyl-2-oxooxazolidin-3-yl)-6-morpholinopyrimidin-4-yl)phenyl)isonicotinamide] |  | 22.3 nM | 
26 | CCOc1nnc(-c2cc(NC(=O)c3ccnc(C(C)C)c3)cnc2C)cc1N1CCOCC1 [Example 621, N-(5-(6-ethoxy-5-morpholinopyridazin-3-yl)-6-methylpyridin-3-yl)-2-isopropylisonicotinamide] |  | 2.6 nM | 
27 | Cc1ccc(NC(=O)c2cccc(C(F)(F)F)c2)cc1-c1nc(N2CCOCC2)c2[nH]ccc2n1 [Example 830, N-(4-methyl-3-(4-morpholino-5H-pyrrolo[3,2-d]pyrimidin-2-yl)phenyl)-3-(trifluoromethyl)benzamide] |  | 0.6 nM | 
28 | Cc1ncc(NC(=O)c2cccc(C(C)(C)S(C)(=O)=O)c2)cc1-c1cc(N2CCOCC2)nc(N2CC(O)C2)c1 [Example 1091, N-(2′-(3-hydroxyazetidin-1-yl)-2-methyl-6′-morpholino-[3,4′-bipyridin]-5-yl)-3-(2-(methylsulfonyl)propan-2-yl)benzamide] | 1110 nM |  | 
29 | Cc1ccc(NC(=O)c2ccnc(S(C)(=O)=O)c2)cc1-c1cc(N2CCOCC2)nc(N(C)C)n1 [Example 759, N-(3-(2-(dimethylamino)-6-morpholinopyrimidin-4-yl)-4-methylphenyl)-2-(methylsulfonyl)isonicotinamide] |  | 11.5 nM | 
30 | Cc1ccc(NC(=O)c2cc(C(F)(F)F)ccn2)cc1-c1cc(N2CCOCC2)c(OCCO)nn1 [Example 586, N-(3-(6-(2-hydroxyethoxy)-5-morpholinopyridazin-3-yl)-4-methylphenyl)-4-(trifluoromethyl)picolinamide] |  | 1 nM | 
31 | CCOc1nnc(-c2cc(NC(=O)c3cccc(C(F)(F)F)c3)cnc2C)cc1N1CCOCC1 [Example 609, N-(5-(6-ethoxy-5-morpholinopyridazin-3-yl)-6-methylpyridin-3-yl)-3-(trifluoromethyl)benzamide] |  | 0.9 nM | 
32 | Cc1ccc(NC(=O)c2ccnc(C(F)(F)F)c2)cc1-c1cc(N2CCOCC2)nc(N2CCOCC2)c1 [Example 1112, N-(3-(2,6-dimorpholinopyridin-4-yl)-4-methylphenyl)-2-(trifluoromethyl)isonicotinamide] | 0.83 nM |  | 
33 | Cc1ccc(NC(=O)c2cccc(C(F)(F)F)c2)cc1-c1cc(N2CCOCC2)c(=O)n(CC#N)c1 [Example 147, N-(3-(1-(cyanomethyl)-5-morpholino-6-oxo-1,6-dihydropyridin-3-yl)-4-methylphenyl)-3-(trifluoromethyl)benzamide] |  |  | IC50 [3]: 1 nM
34 | Cc1ncc(NC(=O)c2ccnc(C(C)(C)C#N)c2)cc1-c1cc(N2CCOCC2)c(=O)n(C)n1 [Example 645, 2-(2-cyanopropan-2-yl)-N-(6-methyl-5-(1-methyl-5-morpholino-6-oxo-1,6-dihydropyridazin-3-yl)pyridin-3-yl)isonicotinamide] |  | 53.4 nM | 
